Starred links: 1 amine or outer side, 2 acyl side, 3 side chain; linkers in the order of their positions; H or OH if unused. Non-standard residues stand in square brackets, D forms with d. Residues, ends and D or L forms follow the SMILES beside them. Groups on a side chain read outwards from the residue. *: point of attachment. C20 diacid = O=C(O)CCCCCCCCCCCCCCCCCCC(=O)*; γGlu = O=C(O)[C@H](CCC(=O)[*:2])N[*:1]; Nle = CCCC[C@H](N)C(=O)O; AEEA = NCCOCCOCC(=O)O
What was measured:
hCRHR2 = target: T1, hCRHR2 (Homo sapiens, UniProt Q13324); assay: HTRF cAMP assay, determination of hCRHR2 potency (peptide libraries 5 conc., purified peptides 11 conc.); format: cell-based; details: Table 3, matched molecular pairs X^38 L vs Nle, peptide library of Example 4; read-out: hCRHR2 pEC50 (converted)
T1 sequence (Q13324 1-411): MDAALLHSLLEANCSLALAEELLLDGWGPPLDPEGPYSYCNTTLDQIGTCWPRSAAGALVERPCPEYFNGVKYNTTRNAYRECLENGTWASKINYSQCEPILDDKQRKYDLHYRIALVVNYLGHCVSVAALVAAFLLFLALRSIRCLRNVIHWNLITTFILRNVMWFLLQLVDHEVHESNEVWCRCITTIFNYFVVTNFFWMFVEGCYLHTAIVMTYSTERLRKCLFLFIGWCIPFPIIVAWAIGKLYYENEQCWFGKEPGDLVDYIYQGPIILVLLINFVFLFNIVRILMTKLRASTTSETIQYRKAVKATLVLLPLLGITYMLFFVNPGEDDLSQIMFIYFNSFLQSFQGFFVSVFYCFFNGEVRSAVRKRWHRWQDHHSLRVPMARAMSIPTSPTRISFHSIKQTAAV
Description: HTRF (CisBio) cAMP assay: The assay technology has thoroughly been described in the CisBio HTRF cAMP assay Kit manual (# 62AM4PEC). Briefly, time resolved fluorescence technic was applied to measure cAMP. This technic is based on a competitive immunoassay using cryptate-labelled anti-cAMP antibody and d2-labeled cAMP. In the absence of cellular cAMP, the anti-cAMP cryptate conjugate may get into proximity to cAMP-d2 conjugate and energy (FRET) can be transferred from cryptate to d2.
CHO-K1 cells stably expressing the human corticotropin-releasing hormone receptor 2 (Eurofins/DiscoverX, Cat #95-0048C2 hCRHR2 stable monoclonal cell lines) were used as cells in suspension, brought to life from frozen cell stocks immediately before assay performance.
Concentration-response evaluation of compounds was performed with 5 concentrations of agonist peptides and EC50 values were calculated by nonlinear regression using sigmoid concentration-response with variable slope.
Concentration-response evaluation of compounds was performed with 11 concentrations of agonist peptides and EC50 values were calculated by nonlinear regression using sigmoid concentration-response with variable slope.

hCRHR1 = target: T2, hCRHR1 (Homo sapiens, UniProt P34998); assay: HTRF cAMP assay, determination of hCRHR1 potency (peptide libraries 5 conc., purified peptides 11 conc.); format: cell-based; details: Table 3, matched molecular pairs X^38 L vs Nle, peptide library of Example 4; read-out: hCRHR1 pEC50 (converted)
T2 sequence (P34998 24-415): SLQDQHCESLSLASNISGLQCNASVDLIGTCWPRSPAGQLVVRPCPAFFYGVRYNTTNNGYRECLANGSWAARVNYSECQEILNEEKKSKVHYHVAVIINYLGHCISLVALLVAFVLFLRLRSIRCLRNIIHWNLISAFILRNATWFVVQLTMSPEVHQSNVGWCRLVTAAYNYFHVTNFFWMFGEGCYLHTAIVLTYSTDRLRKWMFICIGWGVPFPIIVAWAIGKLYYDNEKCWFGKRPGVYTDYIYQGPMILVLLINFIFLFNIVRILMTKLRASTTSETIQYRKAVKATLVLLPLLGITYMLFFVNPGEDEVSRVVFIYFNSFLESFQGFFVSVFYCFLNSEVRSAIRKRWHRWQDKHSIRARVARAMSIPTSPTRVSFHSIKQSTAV
Description: HTRF (CisBio) cAMP assay: The assay technology has thoroughly been described in the CisBio HTRF cAMP assay Kit manual (# 62AM4PEC). Briefly, time resolved fluorescence technic was applied to measure cAMP. This technic is based on a competitive immunoassay using cryptate-labelled anti-cAMP antibody and d2-labeled cAMP. In the absence of cellular cAMP, the anti-cAMP cryptate conjugate may get into proximity to cAMP-d2 conjugate and energy (FRET) can be transferred from cryptate to d2. CHO-K1 cells stably expressing the human corticotropin-releasing hormone receptor 1 (Eurofins/DiscoverX Cat #95-0047C2 hCRHR1 stable monoclonal cell lines) were used as cells in suspension, brought to life from frozen cell stocks immediately before assay performance. […] Concentration-response evaluation of compounds was performed with 5 concentrations of agonist peptides and EC50 values were calculated by nonlinear regression using sigmoid concentration-response with variable slope. Concentration-response evaluation of compounds was performed with 11 concentrations of agonist peptides and EC50 values were calculated by nonlinear regression using sigmoid concentration-response with variable slope.

Row | Compound | EC50 (hCRHR2) | EC50 (hCRHR1)
1 | CC[C@H](C)[C@H](N)C(=O)N[C@H](C(=O)N[C@@H](CC(C)C)C(=O)N[C@@H](CO)C(=O)N[C@@H](CC(C)C)C(=O)N[C@@H](CC(=O)O)C(=O)N[C@H](C(=O)N1CCC[C@H]1C(=O)N[C@H](C(=O)NCC(=O)N[C@@H](CC(C)C)C(=O)N[C@@H](CC(C)C)C(=O)N[C@@H](CCC(N)=O)C(=O)N[C@H](C(=O)N[C@@H](CC(C)C)C(=O)N[C@@H](CC(C)C)C(=O)N[C@@H](CCC(=O)O)C(=O)N[C@@H](CCC(N)=O)C(=O)N[C@@H](C)C(=O)N[C@@H](CCCNC(=N)N)C(=O)N[C@@H](C)C(=O)N[C@@H](CCC(=O)O)C(=O)N[C@@H](CO)C(=O)N[C@@H](C)C(=O)N[C@@H](CCCNC(=N)N)C(=O)N[C@@H](CCC(=O)O)C(=O)N[C@@H](CCCNC(=N)N)C(=O)N[C@@H](C)C(=O)N[C@@H](CCCCNC(=O)COCCOCCNC(=O)COCCOCCNC(=O)CC[C@H](NC(=O)CC[C@H](NC(=O)CCCCCCCCCCCCCCCCCCC(=O)O)C(=O)O)C(=O)O)C(=O)N[C@H](C(=O)N[C@@H](CC(N)=O)C(=O)N[C@@H](C)C(=O)N[C@@H](CCC(=O)O)C(=O)N[C@H](C(=O)N[C@@H](CC(C)C)C(=O)N[C@@H](C)C(=O)N[C@@H](CCC(=O)O)C(=O)N[C@H](C(N)=O)[C@@H](C)CC)[C@@H](C)CC)[C@@H](C)O)[C@@H](C)CC)[C@@H](C)CC)C(C)C)C(C)C [SEQ ID NO: 21] (H-IVLSLDVPIGLLQILLEQARAESARERAK([AEEA-AEEA-γGlu-γGlu-C20 diacid])TNAEILAEI-NH2) | 0.794 nM | 63.1 µM
2 | CCCC[C@H](NC(=O)[C@@H](NC(=O)[C@H](CCC(=O)O)NC(=O)[C@H](C)NC(=O)[C@H](CC(N)=O)NC(=O)[C@@H](NC(=O)[C@H](CCCCNC(=O)COCCOCCNC(=O)COCCOCCNC(=O)CC[C@H](NC(=O)CC[C@H](NC(=O)CCCCCCCCCCCCCCCCCCC(=O)O)C(=O)O)C(=O)O)NC(=O)[C@H](C)NC(=O)[C@H](CCCNC(=N)N)NC(=O)[C@H](CCC(=O)O)NC(=O)[C@H](CCCNC(=N)N)NC(=O)[C@H](C)NC(=O)[C@H](CO)NC(=O)[C@H](CCC(=O)O)NC(=O)[C@H](C)NC(=O)[C@H](CCCNC(=N)N)NC(=O)[C@H](C)NC(=O)[C@H](CCC(N)=O)NC(=O)[C@H](CCC(=O)O)NC(=O)[C@H](CC(C)C)NC(=O)[C@H](CC(C)C)NC(=O)[C@@H](NC(=O)[C@H](CCC(N)=O)NC(=O)[C@H](CC(C)C)NC(=O)[C@H](CC(C)C)NC(=O)CNC(=O)[C@@H](NC(=O)[C@@H]1CCCN1C(=O)[C@@H](NC(=O)[C@H](CC(=O)O)NC(=O)[C@H](CC(C)C)NC(=O)[C@H](CO)NC(=O)[C@H](CC(C)C)NC(=O)[C@@H](NC(=O)[C@@H](N)[C@@H](C)CC)C(C)C)C(C)C)[C@@H](C)CC)[C@@H](C)CC)[C@@H](C)O)[C@@H](C)CC)C(=O)N[C@@H](C)C(=O)N[C@@H](CCC(=O)O)C(=O)N[C@H](C(N)=O)[C@@H](C)CC [SEQ ID NO: 22] (H-IVLSLDVPIGLLQILLEQARAESARERAK([AEEA-AEEA-γGlu-γGlu-C20 diacid])TNAEI[Nle]AEI-NH2) | 0.158 nM | 5.01 µM
3 | CC[C@H](C)[C@H](N)C(=O)N[C@H](C(=O)N[C@@H](CC(C)C)C(=O)N[C@@H](CO)C(=O)N[C@@H](CC(C)C)C(=O)N[C@@H](CC(=O)O)C(=O)N[C@H](C(=O)N1CCC[C@H]1C(=O)N[C@H](C(=O)NCC(=O)N[C@@H](CC(C)C)C(=O)N[C@@H](CC(C)C)C(=O)N[C@@H](CCC(N)=O)C(=O)N[C@H](C(=O)N[C@@H](CC(C)C)C(=O)N[C@@H](CC(C)C)C(=O)N[C@@H](CCC(=O)O)C(=O)N[C@@H](CCC(N)=O)C(=O)N[C@@H](C)C(=O)N[C@@H](CCCNC(=N)N)C(=O)N[C@@H](C)C(=O)N[C@@H](CCC(=O)O)C(=O)N[C@@H](C)C(=O)N[C@@H](C)C(=O)N[C@@H](CCCNC(=N)N)C(=O)N[C@@H](CCC(=O)O)C(=O)N[C@@H](CCC(N)=O)C(=O)N[C@@H](C)C(=O)N[C@@H](CCCCNC(=O)COCCOCCNC(=O)COCCOCCNC(=O)CC[C@H](NC(=O)CC[C@H](NC(=O)CCCCCCCCCCCCCCCCCCC(=O)O)C(=O)O)C(=O)O)C(=O)N[C@H](C(=O)N[C@@H](CC(N)=O)C(=O)N[C@@H](C)C(=O)N[C@@H](CCC(=O)O)C(=O)N[C@H](C(=O)N[C@@H](CC(C)C)C(=O)N[C@@H](C)C(=O)N[C@@H](CCC(=O)O)C(=O)N[C@H](C(N)=O)[C@@H](C)CC)[C@@H](C)CC)[C@@H](C)O)[C@@H](C)CC)[C@@H](C)CC)C(C)C)C(C)C [SEQ ID NO: 23] (H-IVLSLDVPIGLLQILLEQARAEAAREQAK([AEEA-AEEA-γGlu-γGlu-C20 diacid])TNAEILAEI-NH2) | 0.501 nM | 39.8 µM
4 | CCCC[C@H](NC(=O)[C@@H](NC(=O)[C@H](CCC(=O)O)NC(=O)[C@H](C)NC(=O)[C@H](CC(N)=O)NC(=O)[C@@H](NC(=O)[C@H](CCCCNC(=O)COCCOCCNC(=O)COCCOCCNC(=O)CC[C@H](NC(=O)CC[C@H](NC(=O)CCCCCCCCCCCCCCCCCCC(=O)O)C(=O)O)C(=O)O)NC(=O)[C@H](C)NC(=O)[C@H](CCC(N)=O)NC(=O)[C@H](CCC(=O)O)NC(=O)[C@H](CCCNC(=N)N)NC(=O)[C@H](C)NC(=O)[C@H](C)NC(=O)[C@H](CCC(=O)O)NC(=O)[C@H](C)NC(=O)[C@H](CCCNC(=N)N)NC(=O)[C@H](C)NC(=O)[C@H](CCC(N)=O)NC(=O)[C@H](CCC(=O)O)NC(=O)[C@H](CC(C)C)NC(=O)[C@H](CC(C)C)NC(=O)[C@@H](NC(=O)[C@H](CCC(N)=O)NC(=O)[C@H](CC(C)C)NC(=O)[C@H](CC(C)C)NC(=O)CNC(=O)[C@@H](NC(=O)[C@@H]1CCCN1C(=O)[C@@H](NC(=O)[C@H](CC(=O)O)NC(=O)[C@H](CC(C)C)NC(=O)[C@H](CO)NC(=O)[C@H](CC(C)C)NC(=O)[C@@H](NC(=O)[C@@H](N)[C@@H](C)CC)C(C)C)C(C)C)[C@@H](C)CC)[C@@H](C)CC)[C@@H](C)O)[C@@H](C)CC)C(=O)N[C@@H](C)C(=O)N[C@@H](CCC(=O)O)C(=O)N[C@H](C(N)=O)[C@@H](C)CC [SEQ ID NO: 24] (H-IVLSLDVPIGLLQILLEQARAEAAREQAK([AEEA-AEEA-γGlu-γGlu-C20 diacid])TNAEI[Nle]AEI-NH2) | 0.398 nM | 1 µM
5 | CC[C@H](C)[C@H](N)C(=O)N[C@H](C(=O)N[C@@H](CC(C)C)C(=O)N[C@@H](CO)C(=O)N[C@@H](CC(C)C)C(=O)N[C@@H](CC(=O)O)C(=O)N[C@H](C(=O)N1CCC[C@H]1C(=O)N[C@H](C(=O)NCC(=O)N[C@@H](CC(C)C)C(=O)N[C@@H](CC(C)C)C(=O)N[C@@H](CCC(N)=O)C(=O)N[C@H](C(=O)N[C@@H](CC(C)C)C(=O)N[C@@H](CC(C)C)C(=O)N[C@@H](CCC(=O)O)C(=O)N[C@@H](CCC(N)=O)C(=O)N[C@@H](C)C(=O)N[C@@H](CCCNC(=N)N)C(=O)N[C@@H](C)C(=O)N[C@@H](CCC(=O)O)C(=O)N[C@@H](C)C(=O)N[C@@H](C)C(=O)N[C@@H](CCCNC(=N)N)C(=O)N[C@@H](CCC(=O)O)C(=O)N[C@@H](CCC(N)=O)C(=O)N[C@@H](C)C(=O)N[C@@H](CCCCNC(=O)COCCOCCNC(=O)COCCOCCNC(=O)CC[C@H](NC(=O)CC[C@H](NC(=O)CCCCCCCCCCCCCCCCCCC(=O)O)C(=O)O)C(=O)O)C(=O)N[C@H](C(=O)N[C@@H](CC(N)=O)C(=O)N[C@@H](C)C(=O)N[C@@H](CCC(=O)O)C(=O)N[C@H](C(=O)N[C@@H](CC(C)C)C(=O)N[C@@H](C)C(=O)N[C@@H](CCC(=O)O)C(=O)N[C@H](C(N)=O)C(C)C)[C@@H](C)CC)[C@@H](C)O)[C@@H](C)CC)[C@@H](C)CC)C(C)C)C(C)C [SEQ ID NO: 25] (H-IVLSLDVPIGLLQILLEQARAEAAREQAK([AEEA-AEEA-γGlu-γGlu-C20 diacid])TNAEILAEV-NH2) | 0.794 nM | 6.31 µM
